Columns and labels:
Format in all cases: cell-based
Raji cells = assay: cell death induced by a pro-apoptotic chemical agent (nanoluciferase release and TO-PRO-3 flow cytometry); settings: 48 hours, increasing concentrations; regardless of the method for measuring the mortality
Description: Raji cells transformed to stably express nanoluciferase (50 000 cells per well) are cultured for 48 hours at 37° C. (under a humidified atmosphere containing 5% CO2) in the presence of increasing concentrations of staurosporine, which is a pro-apoptotic drug, in RPMI-1640 medium containing 10% of FCS, and in the presence or absence of 0.2% of triton X-100 (to determine the maximum release). At the end of the incubation, 25 μl of supernatant are recovered from each well, transferred into a white “half-well” plate, mixed with 25 μl of NanoGlo® substrate diluted to 1/50 in D-PBS, incubated for 3 minutes and read on a Mithras LB940 luminometer. The results of the reading are expressed in RLU (relative luminescence units). The percentage of dead cells for each concentration of staurosporine is determined according to the formula (RLU[triton-free medium])/(RLU[0.2% triton])×100.
After removing the supernatant, the remainder of the cells are resuspended, extemporaneously mixed with a final concentration of 0.25 μM of the vital marker TO-PRO-3 (Life Technologies) and acquired on a C6 flow cytometer (BD/Accuri). The percentage of dead cells is determined during the analysis of the cytometry data as the percentage of cells having integrated the TO-PRO-3.
Two identical independent experiments were carried out, the results of which are presented on graphs A and B of FIG. 28. […]

[1] = test system: CHO cells stably expressing human TNF-alpha in its membraned form; assay: anti-TNF-alpha CDC assay, 51Cr release method; settings: for mean potency: mean±SD
Description: (§1) The method for measuring nanoluciferase release was compared to the chromium method in a third model, that of the anti-TNF-alpha antibody adalimumab (Humira®). The present example illustrates the implementation thereof in an assay for measuring the CDC activity. For this, CHO cells pretransformed and selected to stably express human TNF-alpha in its membraned form were transformed to stably express nanoluciferase. […] Briefly, these cells, labeled or not labeled with ^51Cr, were incubated in the presence of increasing concentrations of adalimumab (Humira®) and of a source of complement (from guinea pig (Sigma)). The specific lysis was then measured by the appropriate method (chromium release or nanoluciferase release).
(§2) The percentage of specific lysis obtained for each concentration X is calculated in the same way for the two types of methods, on the basis of the measurements of radioactivity (in CCPM) or of luminescence (in RLU) according to the formula
(§3) The percentages of specific lysis are represented along the y-axis, each point (black circle for nanoluciferase and white squares for ^51Cr) representing the mean of the nine determinations (3 replicates in 3 independent experiments) and the vertical bars representing the standard deviations. The data were modeled by means of a 4-parameter sigmoidal regression using the GraphPad Prism software.

[2] = test system: CHO cells stably expressing human TNF-alpha in its membraned form; assay: anti-TNF-alpha CDC assay, nanoluciferase release method; settings: for mean potency: mean±SD
Description: as §1, §2, §3

[3] = test system: CHO cells stably expressing TNF-alpha and nanoluciferase; assay: anti-TNF-alpha ADCC assay, 51Cr release method; settings: mean±SD of 3 experiments
Description: (§4) The nanoluciferase method was compared to the ^51Cr method in an anti-TNF-alpha ADCC assay. For this, the CHO cells described in example 7, stably expressing TNF-alpha and nanoluciferase, were used, as was a standard range of adalimumab and of variations at 80% and 125% of this range. Three independent experiments were carried out, according to the same methodology as in the previous examples.

[4] = test system: CHO cells stably expressing TNF-alpha and nanoluciferase; assay: anti-TNF-alpha ADCC assay, nanoluciferase release method; settings: mean±SD of 3 experiments
Description: as §4

Raji target cells [5] = assay: anti-CD20 ADCC assay, 51Cr release method
Description: (§5) The same Raji cells expressing nanoluciferase were or were not labeled with ^51Cr and were used in parallel in the assay.
(§6) Raji target cells transformed to stably express nanoluciferase were incubated or not incubated for 1 hour in a saline solution of Na2CrO4 equivalent to 100 μCi of ^51Cr per million cells, then washed 4 times with RPMI-1640, 10% FCS, and counted. The cells (3000 per well), labeled or not labeled with ^51Cr, were then incubated at 37° C. in a humidified atmosphere at 5% CO2 in flat-bottomed 96-well plates treated for cell culture, in the presence of increasing concentrations of the rituximab antibody (MabThera®) and of cytotoxic effector cells (T lymphocytes expressing CD16, 30 000 cells per well) in RPMI-1640 supplemented with 5% of FCS.
(§7) After 4 hours of incubation, the percentage of specific lysis is measured according to the corresponding method (release of ^51Cr or of nanoluciferase depending on whether the cells have or have not been labeled with chromium): 25 μl of supernatant of the ^51Cr-labeled cells are recovered and deposited on a Lumaplate® (Perkin Elmer). At the same time, for the cells not labeled with ^51Cr, 25 μl of supernatant are recovered from each well, transferred into white “half-well” 96-well plates, mixed with 25 μl of NanoGlo® substrate diluted to 1/50 in D-PBS, incubated for 3 minutes and read on a Mithras LB940 luminometer (Berthold Technologies). After drying overnight, the radioactivity of the supernatants deposited in the Lumaplate® is measured in a Microbeta-Jet counter (Perkin Elmer) and expressed in CCPM (corrected count per minute) after standardization of the detectors.
(§8) The percentage of specific lysis obtained for each concentration X is calculated in the same way for the two types of methods, from the measurements of radioactivity (in CCPM) or of luminescence (in RLU) according to the formula
as §3, with “represented in FIG. 9” for “represented”, “point” for “point (black circle for nanoluciferase and white squares for ^51Cr)”
(§9) This approach also makes it possible to evaluate the accuracy of the method according to the ICH-Q2(R1) criteria.

Raji target cells [6] = assay: anti-CD20 ADCC assay, nanoluciferase release method
Description: as §5, §6, §7, §8
as §3, with “represented in FIG. 9” for “represented”, “point” for “point (black circle for nanoluciferase and white squares for ^51Cr)”
as §9

Raji target cells [7] = assay: anti-CD20 CDC assay, 51Cr release method
Description: as §6, §7, §8
as §3, with “represented in FIG. 9” for “represented”, “point” for “point (black circle for nanoluciferase and white squares for ^51Cr)”
as §9
(§10) Using the same type of target cells as that of example 4, the nanoluciferase method was compared to the ^51Cr method in an anti-CD20 CDC assay. The methodology applied was the same as that described in example 4, the cytolytic system being formed by a source of complement. In the same way, a standard range of antibody (rituximab) was used, and also 80% and 125% modified concentration ranges. Three independent experiments were carried out, one of which was carried out by a second operator.

Raji target cells [8] = assay: anti-CD20 CDC assay, nanoluciferase release method
Description: as §6, §7, §8
as §3, with “represented in FIG. 9” for “represented”, “point” for “point (black circle for nanoluciferase and white squares for ^51Cr)”
as §9, §10

[9] = 51Cr, guinea pig complement, mean±SD over the whole of the ranges in the 3 experiments
[10] = guinea pig complement, mean±SD over the whole of the ranges in the 3 experiments
[11] = 80% range, mean±SD of 3 experiments
[12] = 125% range, mean±SD of 3 experiments
[13] = mean±SD of 3 experiments, 100% range
[14] = mean±SD, 80%, 100% and 125% ranges, 3 experiments, 4 h, CD16 T lymphocyte effectors
[15] = 100% range, mean±SD of 3 experiments
[16] = complement source, mean±SD, all of the 80%, 100% and 125% ranges

Molecule: CN[C@@H]1C[C@H]2O[C@@](C)([C@@H]1OC)n1c3ccccc3c3c4c(c5c6ccccc6n2c5c31)C(=O)NC4 [staurosporine]
- mortality of the target cells (Raji cells): proportional relationship between the concentration of staurosporine and the mortality of the target cells

Molecule: adalimumab
- mean potency ([1]; 51Cr, 80% range): 91.2±23.6%
- mean potency ([1]; 51Cr, 125% range): 153.9±29.2%
- Emax [1, 9]: 50.4±5.6%
- Emin [1, 9]: 3.2±2.8%
- EC50 ([1]; chromium, standard ranges, mean±SD of 3 experiments): 0.1508 ± 0.015 µg/mL
- mean potency ([2]; 80% range): 83.4±10.1%
- mean potency ([2]; 125% range): 131.7±47.2%
- Emax [2, 10]: 45.7±5.1%
- Emin [2, 10]: 0.9±1.5%
- EC50 ([2]; standard ranges, mean±SD of 3 experiments): 0.1569 ± 0.0234 µg/mL
- mean potency ([3]; 80% range): 91.4±43.3%
- mean potency ([3]; 125% range): 138.5±43.9%
- mean potency ([4]; 80% range): 75.5±15.5%
- mean potency ([4]; 125% range): 114.2±22.8%

Molecule: rituximab
- potency (EC50[100%]/EC50[X%]×100) (Raji target cells [5]; [11]): 76.7±10%
- potency (EC50[100%]/EC50[X%]×100) (Raji target cells [5]; [12]): 131.9±11.9%
- EC50 (Raji target cells [5]; [13]): 0.0552 ± 0.0156 µg/mL
- Emax (maximum lysis percentage) (Raji target cells [5]; [14]): 75.7±6.0%
- Emin (minimum lysis percentage) (Raji target cells [5]; [14]): 1.0±1.5%
- potency (EC50[100%]/EC50[X%]×100) (Raji target cells [6]; [11]): 83.6±22%
- potency (EC50[100%]/EC50[X%]×100) (Raji target cells [6]; [12]): 119.5±22.7%
- EC50 (Raji target cells [6]; [13]): 0.0318 ± 0.0073 µg/mL
- Emax (maximum lysis percentage) (Raji target cells [6]; [14]): 73.6±8.4%
- Emin (minimum lysis percentage) (Raji target cells [6]; [14]): 1.2±1.2%
- potency (Raji target cells [7]; 80% range, mean±SD): 69.6±12.3%
- EC50 (Raji target cells [7]; [15]): 0.1567 ± 0.0301 µg/mL
- potency (Raji target cells [7]; 125% range, mean±SD): 131.5±16.4%
- Emax (Raji target cells [7]; [16]): 88.6±7.8%
- Emin (Raji target cells [7]; [16]): 3.0±3.4%
- potency (Raji target cells [8]; 80% range, mean±SD): 65.0±12.9%
- EC50 (Raji target cells [8]; [15]): 0.0731 ± 0.0099 µg/mL
- potency (Raji target cells [8]; 125% range, mean±SD): 105.8±8.2%
- Emax (Raji target cells [8]; [16]): 95.6±7.0%
- Emin (Raji target cells [8]; [16]): −0.3±3.2%

— patent US20180051317A1, “NON-RADIOACTIVE METHOD FOR DETERMINING THE CYTOLITIC ACTIVITY OF AN AGENT WITH RESPECT TO TARGET CELLS, USE THEREOF AND ASSOCIATED KIT” (CLEAN CELLS, priority 2015, published 2018)
